In US20160046618A1, “Cyclopropyl Fused Thiazin-2-Amine Compounds as Beta-Secretase Inhibitors and Methods of Use” (AMGEN INC., priority 2014, published 2016) one finds IC50 data, which are given here for 15 molecules.

Read-outs that look alike come from different tables or passages of the source.

For test [1], the target named is human recombinant BACE1 (Homo sapiens (Human), UniProt P56817). The test can be described thus: In vitro enzymatic BACE1 FRET assay. Format: biochemical. To be noted: BACE1 FRET enzyme assay; read-out: IC50 IP (μM) BACE1 enzyme. As to the method: (§1) These recombinant proteins were further purified using Ni-NTA affinity chromatography (Qiagen). […] This assay is effectively started by the addition of FRET substrate (50 nM) and the combination is incubated for one hour. The FRET assay is terminated by addition of Tris buffer, which raises the pH to neutrality, and the fluorescence is determined. The FRET substrate is a peptide with commercially available fluorophore and quencher, on opposite sides of the BACE cleavage site. Proteolytic cleavage of the FRET substrate releases quenching of fluorescence (excitation 488 nm and emission 590 nm).
Chain of human recombinant BACE1 (P56817 46-501): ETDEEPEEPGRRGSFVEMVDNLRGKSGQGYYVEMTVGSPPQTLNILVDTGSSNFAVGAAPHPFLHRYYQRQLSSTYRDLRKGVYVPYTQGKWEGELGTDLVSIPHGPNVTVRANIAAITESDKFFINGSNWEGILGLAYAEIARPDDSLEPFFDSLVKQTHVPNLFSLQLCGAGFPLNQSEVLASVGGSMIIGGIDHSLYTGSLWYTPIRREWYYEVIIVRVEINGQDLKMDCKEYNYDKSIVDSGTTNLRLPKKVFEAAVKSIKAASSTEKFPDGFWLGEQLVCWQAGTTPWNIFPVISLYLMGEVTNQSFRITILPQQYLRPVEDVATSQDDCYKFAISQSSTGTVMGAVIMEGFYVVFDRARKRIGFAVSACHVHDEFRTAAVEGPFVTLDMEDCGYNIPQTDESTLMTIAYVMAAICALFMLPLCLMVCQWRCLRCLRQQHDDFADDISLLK

The target in test [2] is human recombinant BACE2 (Homo sapiens (Human), UniProt Q9Y5Z0). In words: In vitro enzymatic BACE2 FRET assay. The conditions noted are these: BACE2 FRET enzyme assay; read-out: IC50 IP (μM) BACE2 enzyme. Format: biochemical. As to the method:
as §1

Test [3] concerns Aβ40 in conditioned medium of cells stably expressing Amyloid Precursor Protein (APP). The test can be described thus: In vitro BACE-1 cell-based assay (Aβ40 sandwich ELISA). To be noted: BACE1 cell-based assay; read-out: IC50 IP (μM) BACE1 cell. As to the method:
In Vitro BACE-1 Cell-Based Assay
The cell-based assay measures inhibition or reduction of Aβ40 in conditioned medium of test compound treated cells expressing amyloid precursor protein. Cells stably expressing Amyloid Precursor Protein (APP) were plated at a density of 40K cells/well in 96 well plates (Costar). The cells were cultivated for 24 hours at 37° C. and 5% CO2 in DMEM supplemented with 10% FBS. The test compounds were then added to cells in 10-point dose response concentrations with the starting concentration being either 100 μM or 10 μM. The compounds were diluted from stock solutions in DMSO and the final DMSO concentration of the test compounds on cells was 0.1%. After 24 h of incubation with the test compounds the supernatant conditioned media was collected and the Aβ40 levels were determined using a sandwich ELISA. The IC50 of the compound was calculated from the percent of control or percent inhibition of Aβ40 as a function of the concentration of the test compound.
The sandwich ELISA to detect Aβ40 was performed in 96 well microtiter plates, which were pre-treated with goat anti-rabbit IgG (Pierce). The capture and detecting antibody pair that were used to detect Aβ40 from cell supernatants were affinity purified pAb40 (Biosource) and biotinylated 6E10 (Signet Labs Inc.), respectively. The optimal concentration for the pAb40 antibody was 3 μg/ml in Superblock/TBS (Pierce) that was supplemented with 0.05% Tween 20 (Sigma). […] Cellular supernatants were incubated with the capture antibody for 3 h at 4° C., followed by 3 wash steps in TBS-tween (0.05%). The detecting antibody incubation was for 2 h at 4° C., again followed by the wash steps as described previously. The final readout of the ELISA is Time-Resolved Fluorescence (counts per minute) using Delfia reagents Streptavidin-Europium and Enhancement solutions (Perkin Elmer) and the Victor 2 multilabel counter (Perkin Elmer).
For orientation: ELISA stands for enzyme-linked immunosorbent assay.

The target of test [4] is Recombinant Cat D (Homo sapiens (Human), UniProt P07339). In words: In vitro enzymatic Cathepsin D (Cat D) FRET assay. Format: biochemical. As to the method:
In Vitro Enzymatic Cathepsin D (Cat D) FRET (Fluorescence Resonance Energy Transfer) Assay
Recombinant Cat D was expressed in CHO cells. The assay buffer for CathepsinD is 0.05 M citrate pH 3.5, 10% DMSO final, 5 mM CHAPS. […] The assays are effectively started by the addition of different FRET substrates (20 nM for Cat D) and the combination is incubated for one hour. The FRET assay is terminated with by addition of Tris buffer, which raises the pH to neutrality, and the fluorescence is determined. The FRET substrate is a peptide with commercially available fluorophore and quencher, on opposite sides of the BACE cleavage site. The Cat D substrate peptide sequence is based on sequence #1 of Table 1 from Gulnik et al. FEBS Letters v413 p 379-384 1997. Proteolytic cleavage of the FRET substrate releases quenching of fluorescence (Cat D excitation 500 nm and emission 580 nm).

Setting [5] is: Cathepsin D FRET enzyme assay, read-out: IC50 IP (μM) CatD.

Chain of Recombinant Cat D (P07339 65-412): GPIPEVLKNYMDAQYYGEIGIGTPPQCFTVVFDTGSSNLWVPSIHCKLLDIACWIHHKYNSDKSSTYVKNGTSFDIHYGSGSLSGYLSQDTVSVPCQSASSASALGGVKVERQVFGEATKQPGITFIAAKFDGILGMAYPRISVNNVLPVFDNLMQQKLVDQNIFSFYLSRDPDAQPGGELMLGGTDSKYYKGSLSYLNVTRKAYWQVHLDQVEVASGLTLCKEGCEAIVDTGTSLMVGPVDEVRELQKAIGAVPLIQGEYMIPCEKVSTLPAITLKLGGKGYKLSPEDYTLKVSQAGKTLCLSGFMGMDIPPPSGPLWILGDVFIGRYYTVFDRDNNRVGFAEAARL
Chain of human recombinant BACE2 (Q9Y5Z0 63-518): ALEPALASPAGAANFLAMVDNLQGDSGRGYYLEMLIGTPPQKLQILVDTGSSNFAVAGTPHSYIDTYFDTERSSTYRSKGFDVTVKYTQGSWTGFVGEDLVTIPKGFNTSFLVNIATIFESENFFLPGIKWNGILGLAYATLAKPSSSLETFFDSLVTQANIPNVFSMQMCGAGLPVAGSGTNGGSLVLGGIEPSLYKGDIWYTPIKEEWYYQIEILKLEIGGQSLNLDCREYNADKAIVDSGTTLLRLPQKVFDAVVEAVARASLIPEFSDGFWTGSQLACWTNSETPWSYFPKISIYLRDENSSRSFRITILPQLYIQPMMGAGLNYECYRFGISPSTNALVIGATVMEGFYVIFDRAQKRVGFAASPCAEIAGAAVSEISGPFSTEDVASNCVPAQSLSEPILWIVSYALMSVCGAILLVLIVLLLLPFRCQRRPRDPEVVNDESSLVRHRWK

Regarding `Cc1cc(C#N)cnc1C(=O)Nc1ccc(F)c([C@@]2(CF)N=C(N)S[C@H]3C[C@H]32)c1` [Example 3, N-(3-((1S,5S,6S)-3-amino-5-(fluoromethyl)-2-thia-4-azabicyclo[4.1.0]hept-3-en-5-yl)-4-fluorophenyl)-5-cyano-3-methylpicolinamide], the IC50 – broadly, the concentration that inhibits the measured activity by half – in test [1] was 0.00838 µM; in test [2] it was 0.0108 µM; in test [3], 0.00522 µM; in test [4] (setting [5]), 437 µM.
The like results for `C[C@]1(c2cc(Nc3nccc4cc(Cl)cnc34)cc(F)c2F)N=C(N)S[C@@]2(CO)C[C@H]21` [Example 30, ((1S,5S,6S)-3-amino-5-(5-((3-chloro-1,7-naphthyridin-8-yl)amino)-2,3-difluorophenyl)-5-methyl-2-thia-4-azabicyclo[4.1.0]hept-3-en-1-yl)methanol] were, in that order, 0.00152 µM, below 0.00203 µM, 0.00851 µM and 958 µM.
In the case of `NC1=N[C@](CF)(c2cc(NC(=O)c3ccc(Cl)cn3)cc(F)c2F)[C@@H]2C[C@]2(CO)S1` [Example 31, N-(3-((1S,5S,6S)-3-amino-5-(fluoromethyl)-1-(hydroxymethyl)-2-thia-4-azabicyclo[4.1.0]hept-3-en-5-yl)-4,5-difluorophenyl)-5-chloropicolinamide], the IC50 in test [1] is 0.00206 µM; in test [2], 0.00109 µM; in test [3], 0.00226 µM; in test [4] (setting [5]), 1400 µM.
The like results for `C#CCOc1cnc2c(Nc3cc(F)c(F)c([C@@]4(C)N=C(N)S[C@H]5C[C@H]54)c3)nccc2c1` [Example 32, N-(3-((1S,5S,6S)-3-amino-5-methyl-2-thia-4-azabicyclo[4.1.0]hept-3-en-5-yl)-4,5-difluorophenyl)-3-(2-propyn-1-yloxy)-1,7-naphthyridin-8-amine] were, in that order, 0.0212 µM, 0.304 µM, 0.0836 µM and 138 µM.
As for `C[C@]1(c2cc(Nc3ncnc4cc(Cl)cnc34)cc(F)c2F)N=C(N)S[C@H]2C[C@H]21` [Example 34, N-(3-((1S,5S,6S)-3-amino-5-methyl-2-thia-4-azabicyclo[4.1.0]hept-3-en-5-yl)-4,5-difluorophenyl)-7-chloropyrido[3,2-d]pyrimidin-4-amine], the IC50 in test [1] was 0.0198 µM; in test [2] it was 0.0136 µM; in test [3], 0.0317 µM; in test [4] (setting [5]) it was 295 µM.
The like results for `NC1=N[C@](CF)(c2cc(NC(=O)c3ccc(Cl)cn3)ccc2F)[C@@H]2C[C@]2(CO)S1` [Example 37, N-(3-((1S,5S,6S)-3-amino-5-(fluoromethyl)-1-(hydroxymethyl)-2-thia-4-azabicyclo[4.1.0]hept-3-en-5-yl)-4-fluorophenyl)-5-chloropicolinamide] were, in that order, 0.00332 µM, 0.00161 µM, 0.0014 µM and above 400 µM.
The like results for `COC[C@]12C[C@H]1[C@@](CF)(c1cc(NC(=O)c3ccc(Cl)cn3)ccc1F)N=C(N)S2` [Example 40, N-(3-((1S,5S,6S)-3-amino-5-(fluoromethyl)-1-(methoxymethyl)-2-thia-4-azabicyclo[4.1.0]hept-3-en-5-yl)-4-fluorophenyl)-5-chloro-2-pyridinecarboxamide] were, in that order, 0.00553 µM, 0.00121 µM, 0.0065 µM and 2810 µM.
The like results for `NC1=N[C@](CF)(c2cc(NC(=O)c3ccc(Cl)cn3)ccc2F)[C@@H]2C[C@]2(CF)S1` [Example 41, N-(3-((1S,5S,6S)-3-amino-1,5-bis(fluoromethyl)-2-thia-4-azabicyclo[4.1.0]hept-3-en-5-yl)-4-fluorophenyl)-5-chloro-2-pyridinecarboxamide] were, in that order, 0.00227 µM, below 0.00203 µM, 0.00596 µM and above 400 µM.
As for `NC1=N[C@](CF)(c2cc(NC(=O)c3ccc(Cl)cn3)ccc2F)[C@H]2C[C@@]2(CO)S1` [Example 42, N-(3-((1R,5S,6R)-3-amino-5-(fluoromethyl)-1-(hydroxymethyl)-2-thia-4-azabicyclo[4.1.0]hept-3-en-5-yl)-4-fluorophenyl)-5-chloro-2-pyridinecarboxamide], the IC50 in test [1] amounted to 0.00601 µM; in test [2], 0.0039 µM; in test [3], 0.00576 µM; in test [4] (setting [5]), 95.6 µM.
As for `COC[C@]12C[C@H]1[C@@](CF)(c1cc(NC(=O)c3ccc(Cl)cn3)cc(F)c1F)N=C(N)S2` [Example 43, N-(3-((1S,5S,6S)-3-amino-5-(fluoromethyl)-1-(methoxymethyl)-2-thia-4-azabicyclo[4.1.0]hept-3-en-5-yl)-4,5-difluorophenyl)-5-chloro-2-pyridinecarboxamide], the IC50 in test [1] is 0.00235 µM; in test [2] it was 0.00163 µM; in test [3] it was 0.00995 µM; in test [4] (setting [5]), 755 µM; in test [4] (first procedure (FRET), read-out: Cat D IC50), above 400 µM.
In the case of `Cc1cc(C#N)cnc1C(=O)Nc1ccc(F)c([C@@]2(CF)N=C(N)S[C@@]3(CO)C[C@H]32)c1` [Example 44, N-(3-((1S,5S,6S)-3-amino-5-(fluoromethyl)-1-(hydroxymethyl)-2-thia-4-azabicyclo[4.1.0]hept-3-en-5-yl)-4-fluorophenyl)-5-cyano-3-methyl-2-pyridinecarboxamide], the IC50 in test [1] was 0.00255 µM; in test [2], 0.00147 µM; in test [3], 0.00215 µM; in test [4] (setting [5]), above 400 µM.
Turning to `COC[C@]12C[C@H]1[C@@](CF)(c1cc(Nc3nccc4cc(C#N)cnc34)cc(F)c1F)N=C(N)S2` [Example 47, 8-((3-((1S,5S,6S)-3-amino-5-(fluoromethyl)-1-(methoxymethyl)-2-thia-4-azabicyclo[4.1.0]hept-3-en-5-yl)-4,5-difluorophenyl)amino)-1,7-naphthyridine-3-carbonitrile], the 50% inhibitory concentration (IC50) in test [1] is 0.00318 µM; in test [2] it was 0.00187 µM; in test [3], 0.0162 µM; in test [4] (setting [5]) it was above 400 µM.
On the same counts, the results for `N#Cc1cnc2c(Nc3cc(F)c(F)c([C@@]4(CF)N=C(N)S[C@@]5(CO)C[C@H]54)c3)nccc2c1` [Example 48, 8-((3-((1S,5S,6S)-3-amino-5-(fluoromethyl)-1-(hydroxymethyl)-2-thia-4-azabicyclo[4.1.0]hept-3-en-5-yl)-4,5-fluorophenyl)amino)-7-naphthyridine-3-carbonitrile] are 0.00357 µM, 0.00323 µM, 0.0149 µM and above 400 µM.
On to `N#Cc1cnc2c(Nc3ccc(F)c([C@@]4(CF)N=C(N)S[C@@]5(CO)C[C@H]54)c3)nccc2c1` [Example 50, 8-((3-((1S,5S,6S)-3-amino-5-(fluoromethyl)-1-(hydroxymethyl)-2-thia-4-azabicyclo[4.1.0]hept-3-en-5-yl)-4-fluorophenyl)amino)-1,7-naphthyridine-3-carbonitrile], for which the IC50 in test [1] is 0.00225 µM; in test [2], 0.00286 µM; in test [3] it was 0.00505 µM; in test [4] (setting [5]), above 133 µM.
The like results for `C#CCOc1cnc(C(=O)Nc2ccc(F)c([C@@]3(CF)N=C(N)S[C@@]4(CO)C[C@H]43)c2)cn1` [Example 53, N-(3-((1S,5S,6S)-3-amino-5-(fluoromethyl)-1-(hydroxymethyl)-2-thia-4-azabicyclo[4.1.0]hept-3-en-5-yl)-4-fluorophenyl)-5-(2-propyn-1-yloxy)-2-pyrazinecarboxamide] were, in that order, 0.00045 µM, 0.0156 µM, 0.00045 µM and 349 µM.
